Tests used:
[1] = tested on: lamina propria T cell (CD3+); assay: Cell death in lamina propria T cell from active IBD, 7-AAD staining (FIG. 1); type: cell-based, human; details: 10 μM for 16 hours, LPMC from IBD subjects, versus DMSO
Description: Cell death in lamina propria T cell (CD3+) was determined by measuring 7-AAD staining by flow cytometry. FIG. 1. […] Cell death in lamina propria T cell (CD3+) was determined by measuring 7-AAD staining by flow cytometry.

LPMC T cells = assay: LPMC T cell death, 7-AAD flow cytometry (Example 3); type: cell-based, human
Description: Objective. […] Model. The human LPMC model as described in Example 2 was used. Cell isolation and culture. Cell isolation and culture procedures were as detailed in Example 2. Treatment with Niclosamide. […] […] […] After treatment cells were exposed to 1 μM 7AAD then incubated a further 60 minutes at 37° C. Live cells and dead cells were enumerated by flow cytometer using a FACS Verse cytometer set to excite and measure emitted fluorescence of 7-AAD at appropriate wavelengths. Detecting viable and dead cells. 7-AAD is excluded from live cells but free to enter dead cells where it undergoes a spectral shift after interacting with cellular DNA. […] Use of this reagent allows viable cells and dead cells to be simultaneously enumerated. In order to specifically distinguish T cells from other cells in LPMCs, anti-CD3 monoclonal antibody labeled with FITC (excitation at 494 nm with emission detected at 521 nm) will be used. This antibody specifically binds human CD3 antigen that is selectively expressed on T cells. Cell viability and death was determined specifically in T cells by measuring 7-AAD fluorescence in cells labeled by anti-CD3 FITC. Calculation of T cell death. The fluorescence intensity of 7-AAD detected at 647 nm was measured specifically T the cell population that was first defined as described in Example 2 by FITC-anti-CD3 antibody fluorescence. […] For statistical comparisons, 95% confidence intervals were computed and graphed with the mean values.

human LPMCs T cells = assay: ΔΨm in T cells isolated from human intestine lamina propria (LPMC), TMRM with oligomycin (Example 2); type: cell-based
Source text: Objective. […] Model. Lamina propria mononuclear cells (LPMC) in the human intestine are comprised in part by T cells, which mediate physiological and pathological processes including inflammatory bowel disease. LPMCs can be isolated from human tissue biopsies. After isolation […] cells remain viable ex vivo under appropriate culture conditions for periods of time that allow ex vivo experiments. These cells can be used to investigate mechanisms that regulate their mitochondrial function and survival. They contain respiring mitochondria and as such their response to mitochondrial uncouplers such as niclosamide may be assessed. This cellular model is used in conjunction with oligomycin that blocks oxidative phosphorylation and TMRM to monitor ΔΨm as described in Example 1. Cell isolation and culture. Cells are obtained from biopsy specimens of the small or large intestine or rectum of humans from areas of normal gastrointestinal tissue or with moderate to severe Crohn's disease (CD), ulcerative colitis (UC), or celiac disease. For the isolation of lamina propria mononuclear […] specimens are initially washed in Hank's balanced salt solution (HBSS) then are cut into 0.5-cm pieces, and are incubated with stirring in pre-warmed HBSS containing 1 mM DTT at 37° C. for 15 minutes. […] The isolated cells are counted and checked for viability using 0.1% trypan blue (viability ranges from 86% to 94%). […] In addition, anti-CD3 monoclonal antibody conjugated to FITC (excitation at 494 nm with emission detected at 521 nm) is additionally added during incubation with TMRM at 37° C. for 30 minutes. […] LPMC T cells are first defined by their fluorescence emission at 521 nm resulting from labeling with FITC-anti-CD3 antibody. The n fluorescence intensity of TMRM detected at 590 nm in the T cell population is measured. Median fluorescence intensity of the TMRM signal are computed. Ratios of the median fluorescence intensity of each treated sample to the control sample mean are then calculated as a measure of relative decrease in ΔΨm. […]

[2] = Colon concentration in mice compared with uncoupling concentration (Example 6); type: in vivo
Description: Model. Results from Examples 2 and 5 are used together. […] This concentration is directly compared to the dose-response data to determine if efficacious exposure is sufficient to induce mitochondrial uncoupling in colon.
Pharmacokinetic study design.
Calculation of target coverage. The average area under the colon concentration versus time curve (AUC) and the peak concentration is calculated and is plotted and is graphed.

[3] = tested on: TNBS model of ulcerative colitis; assay: Murine TNBS model of ulcerative colitis, rectal versus intraperitoneal (FIG. 2); type: in vivo

For `O=C(Nc1ccc([N+](=O)[O-])cc1Cl)c1cc(Cl)ccc1O` [Niclosamide, 5-chloro-N-(2-chloro-4-nitrophenyl)-2-hydroxybenzamide], the “cell death in lamina propria T cell (CD3+)” value [1] was “induces cell death”, the “LPMC T cell death” value (LPMC T cells; 1-500 μM, 24 hours, 7-AAD in CD3+ cells) was “dose-related increase” and the “concentrations that fail to induce T cell death” value (LPMC T cells; LPMC T cells) was “below 5 μM”. For the same compound, the “concentrations of niclosamide that significantly increase T cell death (p<0.05)” value (LPMC T cells; relative to negative controls with vehicle alone) was no less than 5 µM, the “change in ΔΨm in human LPMCs T cells” value (human LPMCs T cells; TMRM, oligomycin, relative to negative controls) was “dose-related decrease” and the “concentrations of niclosamide that decrease ΔΨm (p<0.05)” value (human LPMCs T cells; human LPMCs T cells, relative to negative controls) was no less than 5 µM. The “mitochondrial uncoupling in lamina propria T cell” value (human LPMCs T cells; niclosamide 5 μM) was “more than 50%”, the “concentration in the colon” value ([2]; single rectal dose 1 mg/kg (below maximal efficacy)) was less than 5 µM and the colon peak concentration ([2]; single rectal dose 3 mg/kg (therapeutic dosage)) was greater than 5 µM. For the same compound, the “efficacy in murine TNBS model of ulcerative colitis” value ([3]; administered rectally (locally)) was “robust efficacy” and the “efficacy in murine TNBS model of ulcerative colitis” value ([3]; intraperitoneal injection (systemically)) was “not by intraperitoneal injection”.

From patent US10849867B2, “Methods and compositions for treating conditions associated with an abnormal inflammatory response” (First Wave Bio, Inc., priority 2015, dated 2020)
